Results on 24 compounds are retold here after patent US10865216B2, “Tricyclic Gyrase inhibitors” (MERCK SHARP & DOHME CORP., priority 2012, dated 2020).

In brackets after ≈: the same amount, converted by molar mass.

Assay [1] deals with S. aureus ATCC 13709. As to the kind of experiment: MIC, S. aureus ATCC 13709. The assay is classed as cell-based. The conditions noted are these: S. aureus; Alamar Blue read after overnight incubation at 35° C. In general terms: Alamar Blue is a resazurin reagent that responds to reducing activity.
The test system of assay [2] is E. coli ATCC 25922. As to the kind of experiment: MIC, E. coli ATCC 25922. The format is cell-based. The conditions noted are these: E. coli; Alamar Blue read after overnight incubation at 35° C.

As to `CNc1ncc(Oc2nc(N3CC4C(N)C4C3)c3c(n2)[nH]c2c(NC)cc(F)cc23)cn1` (stereo not drawn) [Compound 4.218], the “MIC Sa” value in assay [1] is ≤0.5 µg/mL. Besides, the “MIC Ec” value in assay [2] is ≤0.5 µg/mL.
As to `CNc1ncc(Oc2nc(N3CC[C@@H](N)C3)c3c(n2)[nH]c2c(NC)cc(F)cc23)cn1` [Compound 4.219], the “MIC Sa” value in assay [1] is ≤0.5 µg/mL. Moreover, in assay [2], the “MIC Ec” value was ≤0.5 µg/mL.
As to `CNc1ncc(Oc2nc(N3CCC4(CC4N)C3)c3c(n2)[nH]c2c(NC)cc(F)cc23)cn1` (stereo not drawn) [Compound 4.220], the “MIC Sa” value in assay [1] was ≤0.5 µg/mL. The “MIC Ec” value in assay [2] was ≤0.5 µg/mL.
On to `CNc1ncc(Oc2nc(N3CC4CC(N)C4C3)c3c(n2)[nH]c2c(NC)cc(F)cc23)cn1` (stereo not drawn) [Compound 4.221], for which the “MIC Sa” value in assay [1] was ≤0.5 µg/mL. Moreover, the “MIC Ec” value in assay [2] is 2 µg/mL (≈ 4.45 µM).
On to `CNc1cc(F)cc2c1[nH]c1nc(Oc3cnc(NC4CC4)nc3)nc(N3CC[C@@H](N)C3)c12` [Compound 4.222], for which the “MIC Sa” value in assay [1] was ≤0.5 µg/mL. In addition, the “MIC Ec” value in assay [2] is ≤0.5 µg/mL.
As to `CNc1cc(F)cc2c1[nH]c1nc(Oc3cnc(NC4CC4)nc3)nc(N3CC4C(N)C4C3)c12` (stereo not drawn) [Compound 4.223], the “MIC Sa” value in assay [1] is ≤0.5 µg/mL. For the same compound, the “MIC Ec” value in assay [2] is ≤0.5 µg/mL.
Take `CNc1cc(F)cc2c1[nH]c1nc(Oc3cnc(-c4nn[nH]n4)nc3)nc(N3CC[C@@H](N)C3)c12` [Compound 4.224]: the “MIC Sa” value in assay [1] is 1 µg/mL (≈ 2.16 µM). Besides, the “MIC Ec” value in assay [2] was >16 µg/mL.
For `CNc1cc(F)cc2c1[nH]c1nc(Oc3cnc4c(c3)ncn4C)nc(N3CC[C@@H](N)C3)c12` [Compound 4.225], the “MIC Sa” value in assay [1] was ≤0.5 µg/mL. The “MIC Ec” value in assay [2] came to 2 µg/mL (≈ 4.47 µM).
On to `CNc1cc(F)cc2c1[nH]c1nc(Oc3cnc4c(c3)ncn4C)nc(N3CC4CC(N)C4C3)c12` (stereo not drawn) [Compound 4.226], for which, in assay [1], the “MIC Sa” value is ≤0.5 µg/mL. For the same compound, in assay [2], the “MIC Ec” value amounted to 2 µg/mL (≈ 4.22 µM).
Taken in the same sequence, the figures for `CNc1cc(F)cc2c1[nH]c1nc(Oc3cnc(N4CCN(C(C)=O)CC4)nc3)nc(N3CC[C@@H](N)C3)c12` [Compound 4.229] were ≤0.5 µg/mL and 2 µg/mL (≈ 3.84 µM).
As for `CNc1cc(F)cc2c1[nH]c1nc(Oc3ccnnc3)nc(N3CC(N)C4(CC4)C3)c12` (stereo not drawn) [Compound 4.230], the “MIC Sa” value in assay [1] came out at 32 µg/mL (≈ 76.1 µM). The “MIC Ec” value in assay [2] was >16 µg/mL.
Consider `CNc1cc(F)cc2c1[nH]c1nc(Oc3cnc(C(C)C)nc3)nc(N3CC4C(N)C4C3)c12` (stereo not drawn) [Compound 4.232], for which, in assay [1], the “MIC Sa” value is ≤0.5 µg/mL. Moreover, the “MIC Ec” value in assay [2] was ≤0.5 µg/mL.
For `CNc1cc(F)cc2c1[nH]c1nc(Oc3cnc(C(C)C)nc3)nc(N3CC4CC(N)C4C3)c12` (stereo not drawn) [Compound 4.234], the “MIC Sa” value in assay [1] is ≤0.5 µg/mL. Further, the “MIC Ec” value in assay [2] came to 1 µg/mL (≈ 2.16 µM).
`CNc1cc(F)cc2c1[nH]c1nc(Oc3cnc(C(C)C)nc3)nc(N3CCC4(CC4N)C3)c12` (stereo not drawn) [Compound 4.235]: the “MIC Sa” value in assay [1] was ≤0.5 µg/mL. Moreover, in assay [2], the “MIC Ec” value was ≤0.5 µg/mL.
As to `CNc1cc(F)cc2c1[nH]c1nc(Oc3cncc(C(N)=O)c3)nc(N3CC4CC(N)C4C3)c12` (stereo not drawn) [Compound 4.236], the “MIC Sa” value in assay [1] was ≤0.5 µg/mL. Further, the “MIC Ec” value in assay [2] was ≤0.5 µg/mL.
As for `CNc1cc(F)cc2c1[nH]c1nc(Oc3cncc(C(N)=O)c3)nc(N3CC4C(N)C4C3)c12` (stereo not drawn) [Compound 4.237], the “MIC Sa” value in assay [1] was ≤0.5 µg/mL. Also, the “MIC Ec” value in assay [2] was found to be 2 µg/mL (≈ 4.46 µM).
As for `CNc1cc(F)cc2c1[nH]c1nc(Oc3cnc(C4CC4)nc3)nc(N3CC4CC(N)C4C3)c12` (stereo not drawn) [Compound 4.240], the “MIC Sa” value in assay [1] was ≤0.5 µg/mL. Moreover, in assay [2], the “MIC Ec” value is ≤0.5 µg/mL.
Regarding `CNc1cc(F)cc2c1[nH]c1nc(Oc3cnc(C4CC4)nc3)nc(N3CC4C(N)C4C3)c12` (stereo not drawn) [Compound 4.241], in assay [1], the “MIC Sa” value was ≤0.5 µg/mL. Also, the “MIC Ec” value in assay [2] was ≤0.5 µg/mL.
`CNc1cc(F)cc2c1[nH]c1nc(Oc3cnc(C4CC4)nc3)nc(N3CC4(CCC4N)C3)c12` (stereo not drawn) [Compound 4.244]: the “MIC Sa” value in assay [1] is ≤0.5 µg/mL. In assay [2], the “MIC Ec” value was ≤0.5 µg/mL.
For `CNc1cc(F)cc2c1[nH]c1nc(Oc3cnc(C4CC4)nc3)nc(N3CC4CC4(CN)C3)c12` (stereo not drawn) [Compound 4.246], the “MIC Sa” value in assay [1] is ≤0.5 µg/mL. For the same compound, in assay [2], the “MIC Ec” value is ≤0.5 µg/mL.
For the compound `CNc1cc(F)cc2c1[nH]c1nc(Oc3cnc(C4CC4)nc3)nc(N3CC4C(CN)C4C3)c12` (stereo not drawn) [Compound 4.249], the “MIC Sa” value in assay [1] is ≤0.5 µg/mL. Also, the “MIC Ec” value in assay [2] was ≤0.5 µg/mL.
Regarding `CNc1cc(F)cc2c1[nH]c1nc(Oc3cnc(C4CC4)nc3)nc(N3CC4CCNC4C3)c12` (stereo not drawn) [Compound 4.250], in assay [1], the “MIC Sa” value was ≤0.5 µg/mL. Moreover, in assay [2], the “MIC Ec” value was ≤0.5 µg/mL.
`CNc1cc(F)cc2c1[nH]c1nc(Oc3cnc(C4CC4)nc3)nc(N3CC4CCC(N)C4C3)c12` (stereo not drawn) [Compound 4.251]: in assay [1], the “MIC Sa” value is ≤0.5 µg/mL. Also, the “MIC Ec” value in assay [2] was ≤0.5 µg/mL.
`CNc1cc(F)cc2c1[nH]c1nc(Oc3cnc(C4CC4)nc3)nc(C3CCC4(CC3)NC(=O)NC4=O)c12` (stereo not drawn) [Compound 4.252]: the “MIC Sa” value in assay [1] is >16 µg/mL. Moreover, the “MIC Ec” value in assay [2] was >16 µg/mL.
